Reference: US20250084039A1, “4-SUBSTITUTED AMINOISOQUINOLINE DERIVATIVES” (Purdue Research Foundation, priority 2016, published 2025)
Where two headings read alike, the source gives them in different places. Values belong to the compound of their own block, whether it stands above or below them.

Legend:
MV4-11 [1] = assay: Proliferation inhibition screen at 100 nM; assay type: cell-based; conditions: 100 nM compound, FIG. 10
Protocol: To determine inhibition at 100 nM or […], 96-well plates were seeded the afternoon before treatment. Plates were then treated with compound diluted in dimethyl sulfoxide (DMSO) as well as a DMSO control the following day for 72 hours. After this time the plates were then treated with 10 μL of CellTiter-Blue Cell Viability Assay (Promega, Madison, WI) for 4 hours. Then the plates were read on a plate reader (Bio-Tek, Winooski, VT). Data was analyzed on Excel as a percent of the DMSO vehicle.
From these cell proliferation studies, MV4-11 appeared to be more sensitive to the compounds than the other cell lines (Table 6A). […] To identify group of compounds potently inhibiting cancer cell proliferation, a lower concentration of compounds (100 nM) were used to screen against MV4-11 (FIG. 10). From these experiments, potent amide compounds A7, A10, A15, A16, A18, A20, B15 and D30 (as indicated by ***, FIG. 10) were selected. […] Typically amides that contain basic amines are included in compound libraries to improve aqueous solubility but it appears that the presence of a basic amine in the side chain of the compounds also facilitated the actual inhibition of MV4-11 proliferation.

NCI H1703 (NSCLC) = assay: Activity against lung cancer cell line; assay type: cell-based; conditions: Homo sapiens, NCI-H1703
RET = RET (Homo sapiens (Human), UniProt P07949); assay: Reaction Biology HotSpot kinase assay; assay type: biochemical; conditions: 500 nM compound; read-out: Percentage kinase inhibition RET
Protocol: (§1) The Reaction Biology Corporation (www.reactionbiology.com, Malvern, PA) HotSpot assay platform was used to measure kinase/inhibitor interactions exactly as previously described. Kinase and substrate were mixed in a buffer containing 20 mM HEPES pH 7.5, 10 mM MgCl2, 1 mM EGTA, 0.02% Brij35, 0.02 mg/mL BSA, 0.1 mM Na3VO4, 2 mM DTT and 1% DMSO. Single-dose of compounds (500 nM) were then added to each reaction mixture. After 20-minute incubation. ATP (Sigma) and [γ-^33P] ATP (Perkin Elmer) were added at a final total concentration of 100 μM for addition 2 hours at room temperature, followed by spotting onto P81 ion exchange cellulose chromatography paper (Whatman, Inc.). […] Percent remaining kinase activity of a vehicle (DMSO) containing kinase reaction was calculated for each kinase/inhibitor pair using Prism 5 (GraphPad).
as §1, with “1” for “DTT”, “incubation,” for “incubation.”

FGFR1 = FGFR1 (Homo sapiens (Human), UniProt P11362); assay: Reaction Biology HotSpot kinase assay; assay type: biochemical; conditions: 500 nM compound; read-out: Percentage kinase inhibition FGFR1
FGFR1, sequence (P11362 22-822): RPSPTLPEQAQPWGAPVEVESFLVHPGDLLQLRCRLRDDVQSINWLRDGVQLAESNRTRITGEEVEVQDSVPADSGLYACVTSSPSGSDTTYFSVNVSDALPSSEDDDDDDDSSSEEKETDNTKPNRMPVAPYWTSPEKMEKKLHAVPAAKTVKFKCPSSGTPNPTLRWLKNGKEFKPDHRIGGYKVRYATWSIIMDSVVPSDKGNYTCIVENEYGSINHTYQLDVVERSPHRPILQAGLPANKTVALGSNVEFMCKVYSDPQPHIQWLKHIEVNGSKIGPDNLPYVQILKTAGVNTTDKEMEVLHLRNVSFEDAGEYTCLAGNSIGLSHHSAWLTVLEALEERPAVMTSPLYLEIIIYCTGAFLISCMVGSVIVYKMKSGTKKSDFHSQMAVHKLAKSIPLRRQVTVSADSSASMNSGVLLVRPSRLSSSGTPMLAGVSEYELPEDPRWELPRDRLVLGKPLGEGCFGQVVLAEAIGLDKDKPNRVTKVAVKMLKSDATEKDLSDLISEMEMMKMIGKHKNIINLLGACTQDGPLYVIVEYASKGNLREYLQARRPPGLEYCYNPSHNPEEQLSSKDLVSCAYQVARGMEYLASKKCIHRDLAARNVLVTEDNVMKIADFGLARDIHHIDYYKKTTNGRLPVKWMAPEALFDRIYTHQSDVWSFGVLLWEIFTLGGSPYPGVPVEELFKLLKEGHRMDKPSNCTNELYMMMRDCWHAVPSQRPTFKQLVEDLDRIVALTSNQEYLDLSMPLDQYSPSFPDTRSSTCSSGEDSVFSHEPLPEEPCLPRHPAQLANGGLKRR
Protocol: as §1
as §1, with “1” for “DTT”, “incubation,” for “incubation.”

c-Src = c-Src (Homo sapiens (Human), UniProt P12931); assay: Reaction Biology HotSpot kinase assay; assay type: biochemical; conditions: 500 nM compound; read-out: Percentage kinase inhibition c-Src
c-Src, sequence (P12931 whole entry, looked up): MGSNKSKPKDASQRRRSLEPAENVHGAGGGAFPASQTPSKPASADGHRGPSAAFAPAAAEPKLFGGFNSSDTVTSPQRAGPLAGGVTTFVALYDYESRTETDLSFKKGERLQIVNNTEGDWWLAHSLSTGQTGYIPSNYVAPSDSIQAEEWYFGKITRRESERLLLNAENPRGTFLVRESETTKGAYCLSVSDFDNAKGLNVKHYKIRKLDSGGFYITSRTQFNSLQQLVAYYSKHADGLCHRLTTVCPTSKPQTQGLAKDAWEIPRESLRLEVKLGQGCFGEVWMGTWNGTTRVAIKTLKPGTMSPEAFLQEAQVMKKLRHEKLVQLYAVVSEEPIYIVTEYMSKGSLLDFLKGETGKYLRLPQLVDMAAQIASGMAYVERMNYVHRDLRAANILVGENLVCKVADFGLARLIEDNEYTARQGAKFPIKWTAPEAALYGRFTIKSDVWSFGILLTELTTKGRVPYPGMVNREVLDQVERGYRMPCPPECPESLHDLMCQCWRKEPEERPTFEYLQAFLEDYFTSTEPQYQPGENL
Protocol: as §1
as §1, with “1” for “DTT”, “incubation,” for “incubation.”

c-kit = c-kit (Homo sapiens (Human), UniProt P10721); assay: Reaction Biology HotSpot kinase assay; assay type: biochemical; conditions: 500 nM compound, 100 μM radiolabeled ATP
c-kit, sequence (P10721 26-976): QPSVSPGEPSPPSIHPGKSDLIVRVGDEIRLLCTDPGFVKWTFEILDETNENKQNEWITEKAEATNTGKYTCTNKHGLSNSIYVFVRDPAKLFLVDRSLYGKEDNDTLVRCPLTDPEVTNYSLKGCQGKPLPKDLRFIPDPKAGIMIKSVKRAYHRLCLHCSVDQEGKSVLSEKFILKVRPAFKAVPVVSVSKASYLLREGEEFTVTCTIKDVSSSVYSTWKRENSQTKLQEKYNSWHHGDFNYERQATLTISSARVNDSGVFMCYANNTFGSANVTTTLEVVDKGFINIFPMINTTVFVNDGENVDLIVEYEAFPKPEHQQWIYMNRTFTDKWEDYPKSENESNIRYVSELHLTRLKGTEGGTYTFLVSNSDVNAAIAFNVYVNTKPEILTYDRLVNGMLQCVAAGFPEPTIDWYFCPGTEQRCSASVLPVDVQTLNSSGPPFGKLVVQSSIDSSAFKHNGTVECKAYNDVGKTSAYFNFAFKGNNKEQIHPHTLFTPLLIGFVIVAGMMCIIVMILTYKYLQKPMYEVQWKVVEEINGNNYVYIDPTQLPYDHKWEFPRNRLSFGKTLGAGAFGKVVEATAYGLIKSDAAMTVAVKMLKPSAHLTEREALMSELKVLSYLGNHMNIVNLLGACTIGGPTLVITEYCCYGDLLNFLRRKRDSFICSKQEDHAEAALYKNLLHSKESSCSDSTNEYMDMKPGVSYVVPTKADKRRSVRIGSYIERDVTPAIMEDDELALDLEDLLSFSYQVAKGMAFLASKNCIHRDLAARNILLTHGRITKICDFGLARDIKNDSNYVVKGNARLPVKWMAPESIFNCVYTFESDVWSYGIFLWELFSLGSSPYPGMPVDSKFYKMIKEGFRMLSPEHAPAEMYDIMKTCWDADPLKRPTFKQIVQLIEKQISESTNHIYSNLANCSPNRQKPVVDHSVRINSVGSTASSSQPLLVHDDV
Protocol: as §1
as §1, with “1” for “DTT”, “incubation,” for “incubation.”

TRKC = TRKC (Homo sapiens (Human), UniProt Q16288); assay: Reaction Biology HotSpot kinase assay; assay type: biochemical; conditions: 500 nM compound, 100 μM radiolabeled ATP
TRKC, sequence (Q16288 32-839): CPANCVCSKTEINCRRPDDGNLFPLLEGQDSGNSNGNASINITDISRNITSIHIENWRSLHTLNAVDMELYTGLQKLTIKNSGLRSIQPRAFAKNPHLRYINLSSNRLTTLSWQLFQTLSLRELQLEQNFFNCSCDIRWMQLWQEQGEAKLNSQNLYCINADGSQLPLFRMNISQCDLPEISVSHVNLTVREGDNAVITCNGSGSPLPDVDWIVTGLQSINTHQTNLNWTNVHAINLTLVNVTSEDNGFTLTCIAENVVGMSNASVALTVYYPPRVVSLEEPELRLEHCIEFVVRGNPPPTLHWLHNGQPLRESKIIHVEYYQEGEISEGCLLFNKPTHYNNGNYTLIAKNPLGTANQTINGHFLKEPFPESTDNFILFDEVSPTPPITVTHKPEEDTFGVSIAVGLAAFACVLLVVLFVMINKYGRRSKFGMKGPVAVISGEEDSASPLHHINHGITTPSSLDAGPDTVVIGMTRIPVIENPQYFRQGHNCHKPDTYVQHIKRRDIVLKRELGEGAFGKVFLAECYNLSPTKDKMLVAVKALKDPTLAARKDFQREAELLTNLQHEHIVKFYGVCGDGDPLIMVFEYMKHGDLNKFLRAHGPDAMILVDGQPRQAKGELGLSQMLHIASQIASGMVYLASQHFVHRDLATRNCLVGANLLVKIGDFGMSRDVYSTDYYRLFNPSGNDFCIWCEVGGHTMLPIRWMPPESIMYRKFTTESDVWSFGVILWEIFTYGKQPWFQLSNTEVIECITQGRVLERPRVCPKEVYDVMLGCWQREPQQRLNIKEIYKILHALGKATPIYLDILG
Protocol: as §1
as §1, with “1” for “DTT”, “incubation,” for “incubation.”

FLT3 = FLT3 (Homo sapiens (Human), UniProt P36888); assay: Reaction Biology HotSpot kinase assay; assay type: biochemical; conditions: 500 nM compound; for inhibition at 0.5 µM: read-out: % inhibition of FLT3 activity
FLT3, sequence (P36888 27-993): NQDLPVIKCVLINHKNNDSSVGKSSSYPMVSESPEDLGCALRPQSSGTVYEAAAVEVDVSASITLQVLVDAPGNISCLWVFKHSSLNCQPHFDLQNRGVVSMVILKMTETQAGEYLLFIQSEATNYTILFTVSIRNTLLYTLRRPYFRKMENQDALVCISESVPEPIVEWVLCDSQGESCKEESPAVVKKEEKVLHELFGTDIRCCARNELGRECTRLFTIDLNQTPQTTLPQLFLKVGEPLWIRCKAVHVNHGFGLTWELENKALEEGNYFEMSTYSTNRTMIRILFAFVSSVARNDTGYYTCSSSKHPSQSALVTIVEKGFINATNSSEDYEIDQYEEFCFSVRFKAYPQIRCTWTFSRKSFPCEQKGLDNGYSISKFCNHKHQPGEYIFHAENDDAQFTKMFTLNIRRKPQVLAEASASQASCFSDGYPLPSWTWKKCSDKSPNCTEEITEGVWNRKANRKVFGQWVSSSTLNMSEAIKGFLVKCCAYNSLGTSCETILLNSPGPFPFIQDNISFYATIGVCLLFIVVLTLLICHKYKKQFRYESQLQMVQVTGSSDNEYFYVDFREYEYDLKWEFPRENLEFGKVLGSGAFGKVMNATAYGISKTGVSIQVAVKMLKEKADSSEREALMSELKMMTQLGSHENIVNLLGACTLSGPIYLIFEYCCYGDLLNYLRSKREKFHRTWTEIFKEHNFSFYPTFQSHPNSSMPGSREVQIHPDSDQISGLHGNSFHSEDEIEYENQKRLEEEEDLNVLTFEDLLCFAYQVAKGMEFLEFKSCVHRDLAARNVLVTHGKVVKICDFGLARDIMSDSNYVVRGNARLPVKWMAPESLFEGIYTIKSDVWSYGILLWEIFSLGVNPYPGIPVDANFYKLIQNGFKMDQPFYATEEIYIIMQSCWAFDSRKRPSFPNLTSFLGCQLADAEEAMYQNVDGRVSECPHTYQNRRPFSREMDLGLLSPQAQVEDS
Protocol: as §1
as §1, with “1” for “DTT”, “incubation,” for “incubation.”

MV4-11 [2] = assay: IC50 proliferation assay (Alamar Blue, 72 h); assay type: cell-based; conditions: Homo sapiens, MV4-11, 72 h; read-out: IC50 (proliferation inhibition) Cell line - MV4-11
Protocol: (§2) IC50 proliferation assay—Cell lines and primary cells were seeded into 96-well plates the afternoon prior to treatment. Approximately 18 hours later, compounds were semi-serially diluted in dimethyl sulfoxide (DMSO) and then growth medium, and added to cells. Plates were incubated for 72 hours prior to addition of Alamar Blue (Life Technologies, Carlsbad, CA). Plates were read after 4 additional hours of incubation at 37° C. using a Bio-Tek Synergy HT plate reader (Bio-Tek, Winooski, VT). Data was analyzed and graphed using GraphPad Prism Software (Graphpad, La Jolla. CA).
(§3) IC50 (proliferation inhibition) against leukemia cell lines MV4-11 and K562. […] MiaPaca-2 (Pancreatic cell line), HLY-1 (Lymphoma cell line), MV4-11 (AML, cell line) and K562 (CML cell line).

K562 = assay: IC50 proliferation assay (Alamar Blue, 72 h); assay type: cell-based; conditions: Homo sapiens
Protocol: as §2, §3

MV4-11 [3] = assay: IC50 determination (proliferation assay, CellTiter-Blue); assay type: cell-based; conditions: for IC50: Homo sapiens, MV4-11
Protocol: (§4) Cell lines were seeded into 96-well plates the afternoon prior to treatment. Approximately 18 hours later, compounds were diluted in dimethyl sulfoxide (DMSO) and added to cells. Plates were incubated for 72 hours and cells viability determined with CellTiter-Blue Cell Viability Assay (Promega, Madison, WI). Plates were read after 4 additional hours of incubation at 37° C. using plate reader (Bio-Tek, Winooski. VT). Data was analyzed and graphed using GraphPad Prism Software (Graphpad. La Jolla, CA). […]

MOLM14 [4] = assay: as above; assay type: cell-based; conditions: Homo sapiens, MOLM-14
Protocol: as §4

HeLa = assay: Proliferation inhibition at single concentration (CellTiter-Blue); assay type: cell-based; conditions: Homo sapiens, HeLa; 1 μM compound; read-out: Percent inhibition of proliferation HeLa
MCF-7 = assay: as above; assay type: cell-based; conditions: Homo sapiens, MCF7; 1 μM compound; read-out: Percent inhibition of proliferation MCF-7
MV-4-11 = assay: as above; assay type: cell-based; conditions: Homo sapiens, MV4-11; 1 μM compound; read-out: Percent inhibition of proliferation MV-4-11
HCT116 = assay: as above; assay type: cell-based; conditions: Homo sapiens, HCT-116; 1 μM compound; read-out: Percent inhibition of proliferation HCT116
MV4-11 [5] = assay: Anti-proliferative effects in leukemia panel; assay type: cell-based; conditions: Homo sapiens, MV4-11; read-out: Anti-proliferative effects in leukemia panel (μM) MV4-11
Protocol: Molm-14 cells were the kind gift of Dr. Mark Levis from Johns Hopkins University. […] Cell lines were grown and maintained according to ATCC recommendations.
as §2, with “Cell” for “IC50 proliferation assay—Cell”, “lines” for “lines and primary cells”, “Technologies.” for “Technologies,”, “Winooski.” for “Winooski,”, “(Graphpad.” for “(Graphpad,”, “Jolla,” for “Jolla.”

K-562 = assay: Anti-proliferative effects in leukemia panel; assay type: cell-based; conditions: Homo sapiens, K562
Protocol: (§5) Molm-14 cells were the kind gift of Dr. Mark Levis from Johns Hopkins University. THP-1, MV4-11, K-562 and MRC-5A cells were purchased from ATCC (ATCC, Manassas, VA). All cell lines were grown in 37° C. with 5% CO2 atmosphere with RPMI 1640 (Life technologies, Carlsbad. CA) supplemented with heat-inactivated 10% (V/V) fetal bovine serum. Cell lines were grown and maintained according to ATCC recommendations.
as §2, with “Cell” for “IC50 proliferation assay—Cell”, “lines” for “lines and primary cells”, “Technologies.” for “Technologies,”, “Winooski.” for “Winooski,”, “(Graphpad.” for “(Graphpad,”, “Jolla,” for “Jolla.”

THP-1 = assay: Anti-proliferative effects in leukemia panel; assay type: cell-based; conditions: Homo sapiens
Protocol: as §5
as §2, with “Cell” for “IC50 proliferation assay—Cell”, “lines” for “lines and primary cells”, “Technologies.” for “Technologies,”, “Winooski.” for “Winooski,”, “(Graphpad.” for “(Graphpad,”, “Jolla,” for “Jolla.”

MOLM14 [6] = assay: Anti-proliferative effects in leukemia panel; assay type: cell-based; conditions: Homo sapiens, MOLM-14
Protocol: as §5
as §2, with “Cell” for “IC50 proliferation assay—Cell”, “lines” for “lines and primary cells”, “Technologies.” for “Technologies,”, “Winooski.” for “Winooski,”, “(Graphpad.” for “(Graphpad,”, “Jolla,” for “Jolla.”

FLT3 (ITD, F691L) = FLT3 (ITD, F691L) (Homo sapiens, UniProt P36888, F691L/ITD); assay: DiscoverX Kd Elect binding; conditions: read-out: Kd FLT3 (ITD, F691L)
FLT3 (ITD, F691L), sequence (P36888 whole entry, looked up, stated change not applied): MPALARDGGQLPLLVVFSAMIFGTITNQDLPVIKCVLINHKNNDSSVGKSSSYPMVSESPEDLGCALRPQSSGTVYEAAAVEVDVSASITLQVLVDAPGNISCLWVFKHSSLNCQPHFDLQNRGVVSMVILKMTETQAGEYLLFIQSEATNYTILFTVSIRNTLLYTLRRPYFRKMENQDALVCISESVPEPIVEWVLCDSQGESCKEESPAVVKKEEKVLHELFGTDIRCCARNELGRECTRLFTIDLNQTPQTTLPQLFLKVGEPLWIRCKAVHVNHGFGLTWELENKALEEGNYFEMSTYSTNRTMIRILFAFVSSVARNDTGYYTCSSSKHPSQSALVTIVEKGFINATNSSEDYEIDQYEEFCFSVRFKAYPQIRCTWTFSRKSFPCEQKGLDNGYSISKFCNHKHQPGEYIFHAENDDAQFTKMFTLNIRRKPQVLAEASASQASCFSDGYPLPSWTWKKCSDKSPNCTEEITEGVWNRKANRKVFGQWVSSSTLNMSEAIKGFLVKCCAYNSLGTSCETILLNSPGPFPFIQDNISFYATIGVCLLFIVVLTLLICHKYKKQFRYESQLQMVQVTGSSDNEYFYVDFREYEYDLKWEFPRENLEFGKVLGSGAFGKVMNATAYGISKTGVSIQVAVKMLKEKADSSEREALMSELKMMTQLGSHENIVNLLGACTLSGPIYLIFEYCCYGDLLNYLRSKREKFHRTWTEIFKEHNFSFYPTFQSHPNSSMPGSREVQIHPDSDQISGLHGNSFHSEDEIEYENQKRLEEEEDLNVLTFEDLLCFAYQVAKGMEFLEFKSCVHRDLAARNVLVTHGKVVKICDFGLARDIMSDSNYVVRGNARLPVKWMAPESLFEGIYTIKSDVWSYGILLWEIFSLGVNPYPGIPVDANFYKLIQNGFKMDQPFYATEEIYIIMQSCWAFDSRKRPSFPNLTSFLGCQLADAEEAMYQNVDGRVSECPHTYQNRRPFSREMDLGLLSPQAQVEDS

FLT3 (ITD) = FLT3 (ITD) (Homo sapiens, UniProt P36888, ITD); assay: DiscoverX Kd Elect binding; conditions: read-out: Kd FLT3 (ITD)
FLT3 (ITD), sequence (P36888 whole entry, looked up, change not shown): as the sequence (P36888 whole entry, looked up, stated change not applied) above
From the text: Although the current drugs on the market or in clinical trials are relatively successful in killing the AML leukemia cells, they currently are unable to deal with secondary mutations that occur after TKI treatment, such as FLT3 ([…]).

[7] = K562, 72 h, read-out: IC50 (proliferation inhibition) Cell line - K562
[8] = K562, Table 18, read-out: Inhibition of proliferation of K562 cell lines (CML)

Structure (SMILES): CN(C)CC(O)CNC(=O)c1ccc(C#Cc2c(N)ncc3ccc(Cl)cc23)cc1 (centres unmarked) [Compound A15]
inhibition of MV4-11 proliferation in words (MV4-11 [1]): potent

Structure (SMILES): Cc1ccc2cnc(N)c(C#Cc3cc(C(=O)Nc4ccc(CN5CCN(C)CC5)c(C(F)(F)F)c4)ccc3C)c2c1 [HSN379, 3-((3-amino-6-methylisoquinolin-4-yl)ethynyl)-4-methyl-N-(4-((4-methylpiperazin-1-yl)methyl)-3-(trifluoromethyl)phenyl)benzamide]
IC50 (NCI H1703 (NSCLC)): 13 nM

Structure (SMILES): Nc1ncc2ccc(Cl)cc2c1C#Cc1ccc(C(=O)NCCCN2CCCCC2)cc1 [Compound A10]
inhibition of MV4-11 proliferation in words (MV4-11 [1]): potent

inhibition at 0.5 µM (RET): 3%
inhibition at 0.5 µM (FGFR1): 6%
inhibition at 0.5 µM (c-Src): 3%
inhibition at 0.5 µM (c-kit): 86%
inhibition at 0.5 µM (TRKC): 77%
% inhibition of FLT3 activity (FLT3): 75%
inhibition at 0.5 µM (FLT3): 74%
IC50 (MV4-11 [2]): 154 nM
IC50 (K562; [7]): 25 nM
IC50 (K562; [8]): 25.7 ± 0.31 nM
IC50 (MV4-11 [3]): 154 ± 7.1 nM
IC50 (MOLM14 [4]): 129 ± 8.2 nM
Structure (SMILES): CCN(CC)CCNC(=O)c1ccc(C)c(C#Cc2c(N)ncc3ccc(Cl)cc23)c1 [HSN247]
proliferation inhibition in words, MV4-11 / AML (MV4-11 [3]): only moderate inhibitors
inhibition at 1 µM (HeLa): 100%
inhibition at 1 µM (MCF-7): 100%
inhibition at 1 µM (MV-4-11): 58%
inhibition at 1 µM (HCT116): 54%

IC50 (MV4-11 [5]): 0.15 ± 0.01 µM
inhibition at 0.5 µM (c-kit): 68%
IC50 (K-562): 3 µM
IC50 (THP-1): 1.2 µM
IC50 (MOLM14 [6]): 0.15 ± 0.01 µM
Structure (SMILES): N=C(N)c1ccc(/N=N/c2c(N)ncc3ccc(Br)cc23)cc1 [HSW630-1]

Kd (FLT3 (ITD, F691L)): 91 nM
IC50 (MV4-11 [3]): < 1 nM
Kd (FLT3 (ITD)): 7.9 nM
Structure (SMILES): Cc1ncc(C(=O)Nc2ccc(CN3CCN(C)CC3)c(C(F)(F)F)c2)cc1C#Cc1cnc(N)c2ccccc12 [HSN461, 5-((1-aminoisoquinolin-4-yl)ethynyl)-6-methyl-N-(4-((4-methylpiperazin-1-yl)methyl)-3-(trifluoromethyl)phenyl)nicotinamide]
IC50 (NCI H1703 (NSCLC)): 157 nM

Structure (SMILES): CCN(CC)CC(O)CNC(=O)c1ccc(C#Cc2c(N)ncc3ccc(Cl)cc23)cc1 (centres unmarked) [Compound A16]
inhibition of MV4-11 proliferation in words (MV4-11 [1]): potent

Kd (FLT3 (ITD, F691L)): 17 nM
Kd (FLT3 (ITD)): 5.6 nM
Structure (SMILES): Cc1ncc(C(=O)Nc2ccc(CN3CCN(C)CC3)c(C(F)(F)F)c2)cc1C#Cc1cnc(N)c2ncccc12 [HSN459, 5-((8-amino-1,7-naphthyridin-5-yl)ethynyl)-6-methyl-N-(4-((4-methylpiperazin-1-yl)methyl)-3-(trifluoromethyl)phenyl)nicotinamide]
IC50 (NCI H1703 (NSCLC)): 38 nM

inhibition at 0.5 µM (RET): 52%
inhibition at 0.5 µM (FGFR1): 9%
inhibition at 0.5 µM (c-Src): 23%
inhibition at 0.5 µM (c-kit): 93%
inhibition at 0.5 µM (TRKC): 83%
inhibition at 0.5 µM (FLT3): 73%
IC50 (MV4-11 [2]): 225 nM
IC50 (K562; [7]): 7 nM
IC50 (K562; [8]): 7 ± 0.1 nM
IC50 (MV4-11 [3]): 181 ± 6.5 nM
IC50 (MOLM14 [4]): 180 ± 7.8 nM
Structure (SMILES): Cc1ccc(C(=O)NCCN2CCCCC2)cc1C#Cc1c(N)ncc2ccc(Cl)cc12 [HSN248]
proliferation inhibition in words, MV4-11 / AML (MV4-11 [3]): only moderate inhibitors
inhibition at 1 µM (HeLa): 100%
inhibition at 1 µM (MCF-7): 100%
inhibition at 1 µM (MV-4-11): 98%
inhibition at 1 µM (HCT116): 76%

inhibition at 0.5 µM (FGFR1): 100%
inhibition at 0.5 µM (c-Src): 100%
inhibition at 0.5 µM (c-kit): 78%
inhibition at 0.5 µM (FLT3): 93%
IC50 (MV4-11 [2]): 3 nM
IC50 (K562; [7]): 2 nM
IC50 (K562; [8]): 2.4 ± 0.06 nM
IC50 (MV4-11 [3]): 3.09 ± 0.1 nM
IC50 (MOLM14 [4]): 3.01 ± 0.1 nM
Structure (SMILES): Cc1ccc(C(=O)Nc2ccc(CN3CCN(C)CC3)c(C(F)(F)F)c2)cc1C#Cc1c(N)ncc2ccccc12 [HSN352, 3-((3-aminoisoquinolin-4-yl)ethynyl)-4-methyl-N-(4-((4-methylpiperazin-1-yl)methyl)-3-(trifluoromethyl)phenyl)benzamide]

Structure (SMILES): COCCCNC(=O)c1ccc(C#Cc2c(N)ncc3ccc(Cl)cc23)cc1 [Compound A25]
inhibition of MV4-11 proliferation in words (MV4-11 [1]): inactive
